Source: patent US12054486B2, “Pyridine derivatives and their use as sodium channel activators” (Xenon Pharmaceuticals Inc., priority 2021, dated 2024)

Experiments:
[1] = molecular target: sodium channel isoforms of interest stably expressed in Human Embryonic Kidney Cells (voltage-gated sodium channel, particularly NaV1.1) (Homo sapiens, UniProt P35498); assay: automated planar patch clamp assay of sodium channel gating (area under the sodium current trace); format: cell-based; settings: HEK cells, voltage step from −120 mV to 0 mV, increasing concentrations
Procedure, shortened: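 Sodium channel isoforms stably expressed in HEK cells, recorded by automated planar patch clamp with depolarizing steps from −120 mV to 0 mV at increasing compound concentrations. Area under the current trace quantifies gating effect; peak current, inactivation time constant and steady-state inactivation also measured; potency from concentration responses.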

NaV1.1 = NaV1.1 (Homo sapiens, UniProt P35498); settings: NaV1.1-expressing HEK cells; cited from earlier work
NaV1.2 = NaV1.2 (Homo sapiens, UniProt Q99250); settings: relative to NaV1.1 activation; cited from earlier work
NaV1.2, sequence (Q99250 whole entry): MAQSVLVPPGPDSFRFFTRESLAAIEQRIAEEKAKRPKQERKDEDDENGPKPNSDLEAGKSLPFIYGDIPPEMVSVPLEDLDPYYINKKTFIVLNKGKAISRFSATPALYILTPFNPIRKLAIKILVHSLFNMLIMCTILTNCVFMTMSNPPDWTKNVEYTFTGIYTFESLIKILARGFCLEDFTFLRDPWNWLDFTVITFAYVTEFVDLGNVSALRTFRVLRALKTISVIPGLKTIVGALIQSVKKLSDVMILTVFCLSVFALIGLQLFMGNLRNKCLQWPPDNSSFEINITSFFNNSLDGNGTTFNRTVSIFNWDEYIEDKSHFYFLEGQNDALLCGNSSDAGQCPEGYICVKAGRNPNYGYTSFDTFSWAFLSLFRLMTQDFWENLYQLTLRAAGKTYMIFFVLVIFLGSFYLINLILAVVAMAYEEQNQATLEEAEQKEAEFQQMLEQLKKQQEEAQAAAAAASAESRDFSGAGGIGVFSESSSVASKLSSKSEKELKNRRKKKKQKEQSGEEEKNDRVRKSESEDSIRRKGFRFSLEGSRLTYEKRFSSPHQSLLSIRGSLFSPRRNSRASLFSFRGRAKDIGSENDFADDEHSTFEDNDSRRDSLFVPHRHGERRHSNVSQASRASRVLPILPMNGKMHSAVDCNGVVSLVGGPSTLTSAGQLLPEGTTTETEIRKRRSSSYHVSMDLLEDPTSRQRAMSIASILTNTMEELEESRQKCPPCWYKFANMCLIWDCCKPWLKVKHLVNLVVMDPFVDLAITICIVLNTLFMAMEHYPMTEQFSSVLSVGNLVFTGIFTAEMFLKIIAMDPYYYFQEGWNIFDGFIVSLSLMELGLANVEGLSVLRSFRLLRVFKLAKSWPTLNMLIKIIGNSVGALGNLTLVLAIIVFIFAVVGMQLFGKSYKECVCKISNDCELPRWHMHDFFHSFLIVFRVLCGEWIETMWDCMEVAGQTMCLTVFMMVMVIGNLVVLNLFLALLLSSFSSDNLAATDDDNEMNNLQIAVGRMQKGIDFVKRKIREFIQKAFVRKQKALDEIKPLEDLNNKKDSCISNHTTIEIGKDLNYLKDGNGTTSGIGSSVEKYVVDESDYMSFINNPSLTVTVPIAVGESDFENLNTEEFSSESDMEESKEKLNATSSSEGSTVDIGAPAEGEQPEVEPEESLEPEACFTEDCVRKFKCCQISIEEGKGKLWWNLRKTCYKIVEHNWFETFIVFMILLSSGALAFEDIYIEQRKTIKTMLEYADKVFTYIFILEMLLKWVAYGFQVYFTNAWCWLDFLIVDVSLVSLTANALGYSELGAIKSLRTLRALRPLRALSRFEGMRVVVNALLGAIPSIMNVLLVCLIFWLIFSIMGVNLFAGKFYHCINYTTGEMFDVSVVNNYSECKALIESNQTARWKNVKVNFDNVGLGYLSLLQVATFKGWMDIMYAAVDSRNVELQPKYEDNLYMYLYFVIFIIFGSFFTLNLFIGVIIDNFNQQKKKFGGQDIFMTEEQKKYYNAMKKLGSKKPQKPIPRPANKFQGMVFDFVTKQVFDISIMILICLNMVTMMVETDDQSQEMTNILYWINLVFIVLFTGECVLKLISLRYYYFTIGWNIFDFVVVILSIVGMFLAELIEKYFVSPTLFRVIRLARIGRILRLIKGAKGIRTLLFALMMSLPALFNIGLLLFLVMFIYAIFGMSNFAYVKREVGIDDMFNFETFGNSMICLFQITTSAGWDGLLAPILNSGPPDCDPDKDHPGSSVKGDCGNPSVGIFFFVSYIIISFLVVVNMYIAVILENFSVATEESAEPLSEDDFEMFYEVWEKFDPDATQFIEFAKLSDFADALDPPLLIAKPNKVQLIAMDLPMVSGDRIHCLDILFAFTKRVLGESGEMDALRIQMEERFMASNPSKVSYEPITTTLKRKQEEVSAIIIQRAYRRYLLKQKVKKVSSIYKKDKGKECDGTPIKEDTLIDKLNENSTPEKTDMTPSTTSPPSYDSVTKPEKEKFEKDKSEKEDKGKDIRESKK

NaV1.5 = NaV1.5 (Homo sapiens, UniProt Q14524); settings: relative to NaV1.1 activation; cited from earlier work
NaV1.5, sequence (Q14524 whole entry): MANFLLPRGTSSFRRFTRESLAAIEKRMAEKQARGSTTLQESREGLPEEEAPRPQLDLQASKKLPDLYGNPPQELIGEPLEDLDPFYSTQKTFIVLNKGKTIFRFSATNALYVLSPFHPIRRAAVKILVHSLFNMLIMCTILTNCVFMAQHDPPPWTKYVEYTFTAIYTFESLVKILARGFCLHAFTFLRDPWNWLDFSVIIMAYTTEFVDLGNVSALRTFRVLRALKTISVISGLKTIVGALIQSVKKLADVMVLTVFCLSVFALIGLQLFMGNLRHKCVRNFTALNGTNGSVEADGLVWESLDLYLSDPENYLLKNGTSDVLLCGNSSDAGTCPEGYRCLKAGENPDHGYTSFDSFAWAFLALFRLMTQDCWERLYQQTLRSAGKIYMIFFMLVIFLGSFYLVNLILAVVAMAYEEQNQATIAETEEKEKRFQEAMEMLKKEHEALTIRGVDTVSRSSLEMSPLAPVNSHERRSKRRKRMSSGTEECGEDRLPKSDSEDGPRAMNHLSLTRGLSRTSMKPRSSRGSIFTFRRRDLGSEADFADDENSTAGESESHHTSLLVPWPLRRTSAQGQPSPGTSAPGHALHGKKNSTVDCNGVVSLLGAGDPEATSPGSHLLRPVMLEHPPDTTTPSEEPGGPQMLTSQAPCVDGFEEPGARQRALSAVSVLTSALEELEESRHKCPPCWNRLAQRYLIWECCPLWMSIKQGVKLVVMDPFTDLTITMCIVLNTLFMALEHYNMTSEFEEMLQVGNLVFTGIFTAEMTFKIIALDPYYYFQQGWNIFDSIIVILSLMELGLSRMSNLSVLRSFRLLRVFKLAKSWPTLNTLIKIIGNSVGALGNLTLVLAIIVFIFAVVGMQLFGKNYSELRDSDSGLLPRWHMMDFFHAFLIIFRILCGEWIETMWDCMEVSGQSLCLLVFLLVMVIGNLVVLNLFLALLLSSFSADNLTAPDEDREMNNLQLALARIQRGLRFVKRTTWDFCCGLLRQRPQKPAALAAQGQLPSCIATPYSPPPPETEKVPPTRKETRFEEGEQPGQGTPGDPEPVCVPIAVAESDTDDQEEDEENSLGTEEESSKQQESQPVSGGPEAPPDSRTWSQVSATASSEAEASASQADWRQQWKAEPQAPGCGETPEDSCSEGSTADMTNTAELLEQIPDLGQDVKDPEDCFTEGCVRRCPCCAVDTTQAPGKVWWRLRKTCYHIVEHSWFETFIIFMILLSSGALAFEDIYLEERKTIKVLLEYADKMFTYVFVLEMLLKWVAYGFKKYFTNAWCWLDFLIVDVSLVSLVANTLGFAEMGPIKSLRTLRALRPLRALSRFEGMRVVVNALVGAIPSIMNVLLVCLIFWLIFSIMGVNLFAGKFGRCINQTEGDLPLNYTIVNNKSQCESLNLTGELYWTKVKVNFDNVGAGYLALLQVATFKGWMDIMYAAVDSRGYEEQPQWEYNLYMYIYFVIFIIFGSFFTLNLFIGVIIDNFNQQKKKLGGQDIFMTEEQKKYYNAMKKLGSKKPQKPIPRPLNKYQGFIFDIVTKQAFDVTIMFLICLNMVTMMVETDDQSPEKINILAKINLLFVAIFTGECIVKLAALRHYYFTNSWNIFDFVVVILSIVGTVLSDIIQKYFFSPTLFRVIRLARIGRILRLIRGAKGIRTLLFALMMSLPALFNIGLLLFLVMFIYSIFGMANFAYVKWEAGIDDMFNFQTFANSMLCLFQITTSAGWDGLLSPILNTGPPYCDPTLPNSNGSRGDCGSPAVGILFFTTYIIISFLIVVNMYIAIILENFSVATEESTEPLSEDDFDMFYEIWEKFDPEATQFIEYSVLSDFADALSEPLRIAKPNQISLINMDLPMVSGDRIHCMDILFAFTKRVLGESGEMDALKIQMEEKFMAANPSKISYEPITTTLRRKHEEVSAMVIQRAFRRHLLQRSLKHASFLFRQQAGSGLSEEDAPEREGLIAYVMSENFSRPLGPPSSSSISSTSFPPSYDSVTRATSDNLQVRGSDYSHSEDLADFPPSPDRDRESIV

What does the source list for `Fc1cccc(-c2ccnc(N3CCC(F)(F)C3)c2-c2nc3c([nH]2)CCOC3)c1F` [Example 77, 2-[4-(2,3-difluorophenyl)-2-(3,3-difluoropyrrolidin-1-yl)-3-pyridyl]-1,4,6,7-tetrahydropyrano[3,4-d]imidazole]?
EC50 [1]: < 1000 nM; Empirical Emax [1]: ++++ (++++ indicates a value greater than 7.5)

What does the source list for `Fc1ccccc1-c1ccnc(N2CCC(F)(F)C2)c1-c1nc2ccncc2[nH]1` [Example 78, 2-[2-(3,3-difluoropyrrolidin-1-yl)-4-(2-fluorophenyl)-3-pyridyl]-1H-imidazo[4,5-c]pyridine]?
EC50 [1]: < 1000 nM; Empirical Emax [1]: ++++ (++++ indicates a value greater than 7.5)

Which EC50 [1] does the source give for `Cc1cc2nc(-c3c(-c4ccccc4F)ccnc3N3CCC(F)(F)C3)[nH]c2cn1` [Example 79, 2-[2-(3,3-difluoropyrrolidin-1-yl)-4-(2-fluorophenyl)-3-pyridyl]-6-methyl-3H-imidazo[4,5-c]pyridine] here?
Its EC50 is under 1000 nM.

What about the “Empirical Emax” value [1] of the same molecule?
Its value is “++++ (++++ indicates a value greater than 7.5)”.

With `Cn1cc2nc(-c3c(-c4ccccc4F)ccnc3N3CCC(F)(F)C3)[nH]c2n1` [Example 80, 5-[2-(3,3-difluoropyrrolidin-1-yl)-4-(2-fluorophenyl)-3-pyridyl]-2-methyl-4H-imidazo[4,5-c]pyrazole] as the molecule, how does the EC50 [1] read?
The EC50 was 1000 to 10000 nM.

What about the “Empirical Emax” value [1] of the same molecule?
The value was “+++ (+++ indicates a value from 5.0 up to 7.5 μM)”.

With `CCCCNS(=O)(=O)c1ccc(OC)c(-c2nnc3c4ccccc4c(C)nn23)c1` [Lu AE98134] as the molecule, how does the “concentration from which the total area under the curve for the duration of the depolarizing pulse is increased” value (NaV1.1) read?
Its value is at least 1 µM.

What about the “selectivity against NaV1.2” value (NaV1.2) of the same molecule?
Its value is “moderate selectivity”.

And the “selectivity against NaV1.5” value (NaV1.5)?
Its value is “low selectivity”.
